Results as given in paper doi:10.1101/2023.11.24.568596v1 (biorxiv, 2023).

Assays:
Settings in all cases: binder
CaMKK2 = CaMKK2 (Homo sapiens, UniProt Q96RR4)
EphA5 = EphA5 (Homo sapiens, UniProt P54756)
PLK4 = biological target: T1, PLK4 (Homo sapiens, UniProt O00444)
T1 sequence (O00444 1-970): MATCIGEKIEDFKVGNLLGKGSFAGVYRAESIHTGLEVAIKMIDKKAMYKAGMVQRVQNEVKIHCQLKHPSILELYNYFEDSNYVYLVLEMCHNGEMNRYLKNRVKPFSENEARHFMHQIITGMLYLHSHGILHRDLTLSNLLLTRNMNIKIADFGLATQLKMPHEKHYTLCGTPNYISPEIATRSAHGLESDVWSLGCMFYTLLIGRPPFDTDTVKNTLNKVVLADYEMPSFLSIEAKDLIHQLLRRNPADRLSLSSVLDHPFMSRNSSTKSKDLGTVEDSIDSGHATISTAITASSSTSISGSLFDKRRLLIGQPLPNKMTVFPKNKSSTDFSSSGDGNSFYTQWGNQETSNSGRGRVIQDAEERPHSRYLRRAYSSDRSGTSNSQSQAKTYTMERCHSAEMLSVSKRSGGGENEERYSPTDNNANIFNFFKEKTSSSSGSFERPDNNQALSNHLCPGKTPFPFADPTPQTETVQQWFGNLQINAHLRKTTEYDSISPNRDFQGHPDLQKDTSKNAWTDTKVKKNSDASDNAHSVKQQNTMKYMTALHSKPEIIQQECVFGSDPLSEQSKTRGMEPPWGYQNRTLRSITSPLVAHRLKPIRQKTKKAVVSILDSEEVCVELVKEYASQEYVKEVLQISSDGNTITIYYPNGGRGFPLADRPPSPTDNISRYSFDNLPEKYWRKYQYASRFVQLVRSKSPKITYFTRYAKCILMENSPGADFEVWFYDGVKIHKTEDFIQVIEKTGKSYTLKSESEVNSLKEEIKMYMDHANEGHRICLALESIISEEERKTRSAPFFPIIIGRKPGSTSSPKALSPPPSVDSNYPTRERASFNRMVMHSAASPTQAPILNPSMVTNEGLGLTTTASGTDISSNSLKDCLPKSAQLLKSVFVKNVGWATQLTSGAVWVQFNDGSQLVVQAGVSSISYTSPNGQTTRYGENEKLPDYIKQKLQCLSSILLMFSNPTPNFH

MSSK1 = MSSK1 (Homo sapiens, UniProt Q9UPE1)
BRAF = BRAF (Homo sapiens, UniProt P15056)
MAP3K5 = biological target: T2, MAP3K5 (Homo sapiens, UniProt Q99683)
T2 sequence (Q99683 1-1374): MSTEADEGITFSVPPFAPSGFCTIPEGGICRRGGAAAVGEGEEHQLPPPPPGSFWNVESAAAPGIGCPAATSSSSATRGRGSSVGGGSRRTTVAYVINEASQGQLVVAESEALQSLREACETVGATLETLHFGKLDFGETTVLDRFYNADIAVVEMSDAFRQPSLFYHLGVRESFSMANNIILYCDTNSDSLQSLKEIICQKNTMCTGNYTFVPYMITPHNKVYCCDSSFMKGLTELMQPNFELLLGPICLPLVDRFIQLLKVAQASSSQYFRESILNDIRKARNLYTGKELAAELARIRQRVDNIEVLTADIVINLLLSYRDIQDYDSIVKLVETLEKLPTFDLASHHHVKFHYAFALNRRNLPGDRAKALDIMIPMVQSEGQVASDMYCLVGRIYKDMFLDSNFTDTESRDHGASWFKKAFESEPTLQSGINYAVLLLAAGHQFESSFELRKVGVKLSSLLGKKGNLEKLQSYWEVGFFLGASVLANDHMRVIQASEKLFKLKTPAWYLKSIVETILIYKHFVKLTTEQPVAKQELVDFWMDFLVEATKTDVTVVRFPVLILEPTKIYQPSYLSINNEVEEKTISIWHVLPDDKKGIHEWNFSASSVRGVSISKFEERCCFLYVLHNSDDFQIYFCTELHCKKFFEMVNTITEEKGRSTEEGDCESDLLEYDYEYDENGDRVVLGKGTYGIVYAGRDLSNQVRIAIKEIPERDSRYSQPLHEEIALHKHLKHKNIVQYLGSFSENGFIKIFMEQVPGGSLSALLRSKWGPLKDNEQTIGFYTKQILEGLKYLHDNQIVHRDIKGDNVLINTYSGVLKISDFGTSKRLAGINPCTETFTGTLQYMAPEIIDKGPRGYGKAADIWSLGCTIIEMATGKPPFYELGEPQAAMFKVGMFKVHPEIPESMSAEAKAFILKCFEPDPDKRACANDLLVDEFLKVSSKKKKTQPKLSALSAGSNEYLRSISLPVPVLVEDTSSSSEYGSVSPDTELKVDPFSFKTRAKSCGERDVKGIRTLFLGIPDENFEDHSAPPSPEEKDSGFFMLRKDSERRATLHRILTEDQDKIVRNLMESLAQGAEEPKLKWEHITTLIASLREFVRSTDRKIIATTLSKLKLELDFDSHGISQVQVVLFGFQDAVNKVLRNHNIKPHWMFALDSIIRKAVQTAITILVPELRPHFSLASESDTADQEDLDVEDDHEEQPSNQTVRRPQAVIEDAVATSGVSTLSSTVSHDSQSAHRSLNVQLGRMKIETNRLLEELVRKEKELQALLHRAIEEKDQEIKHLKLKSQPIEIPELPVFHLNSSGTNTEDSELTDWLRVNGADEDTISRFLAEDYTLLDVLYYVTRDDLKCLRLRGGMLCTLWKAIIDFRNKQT

Chain of CaMKK2 (Q96RR4 whole entry): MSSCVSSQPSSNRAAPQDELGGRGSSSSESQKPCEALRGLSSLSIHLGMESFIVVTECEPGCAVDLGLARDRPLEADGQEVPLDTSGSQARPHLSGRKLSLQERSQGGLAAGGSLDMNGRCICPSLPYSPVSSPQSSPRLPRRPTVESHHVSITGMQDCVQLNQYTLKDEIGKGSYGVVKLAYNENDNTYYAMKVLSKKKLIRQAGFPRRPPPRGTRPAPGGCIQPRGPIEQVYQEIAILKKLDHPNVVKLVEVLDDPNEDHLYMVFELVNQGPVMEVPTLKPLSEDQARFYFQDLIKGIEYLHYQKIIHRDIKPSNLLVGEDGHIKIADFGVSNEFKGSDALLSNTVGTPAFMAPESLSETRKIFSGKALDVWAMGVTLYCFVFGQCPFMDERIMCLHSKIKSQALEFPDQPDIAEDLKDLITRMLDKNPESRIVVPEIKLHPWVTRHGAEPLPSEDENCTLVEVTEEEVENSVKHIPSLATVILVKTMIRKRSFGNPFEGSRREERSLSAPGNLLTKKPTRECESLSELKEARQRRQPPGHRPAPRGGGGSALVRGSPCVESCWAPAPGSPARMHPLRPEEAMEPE
Chain of EphA5 (P54756 whole entry): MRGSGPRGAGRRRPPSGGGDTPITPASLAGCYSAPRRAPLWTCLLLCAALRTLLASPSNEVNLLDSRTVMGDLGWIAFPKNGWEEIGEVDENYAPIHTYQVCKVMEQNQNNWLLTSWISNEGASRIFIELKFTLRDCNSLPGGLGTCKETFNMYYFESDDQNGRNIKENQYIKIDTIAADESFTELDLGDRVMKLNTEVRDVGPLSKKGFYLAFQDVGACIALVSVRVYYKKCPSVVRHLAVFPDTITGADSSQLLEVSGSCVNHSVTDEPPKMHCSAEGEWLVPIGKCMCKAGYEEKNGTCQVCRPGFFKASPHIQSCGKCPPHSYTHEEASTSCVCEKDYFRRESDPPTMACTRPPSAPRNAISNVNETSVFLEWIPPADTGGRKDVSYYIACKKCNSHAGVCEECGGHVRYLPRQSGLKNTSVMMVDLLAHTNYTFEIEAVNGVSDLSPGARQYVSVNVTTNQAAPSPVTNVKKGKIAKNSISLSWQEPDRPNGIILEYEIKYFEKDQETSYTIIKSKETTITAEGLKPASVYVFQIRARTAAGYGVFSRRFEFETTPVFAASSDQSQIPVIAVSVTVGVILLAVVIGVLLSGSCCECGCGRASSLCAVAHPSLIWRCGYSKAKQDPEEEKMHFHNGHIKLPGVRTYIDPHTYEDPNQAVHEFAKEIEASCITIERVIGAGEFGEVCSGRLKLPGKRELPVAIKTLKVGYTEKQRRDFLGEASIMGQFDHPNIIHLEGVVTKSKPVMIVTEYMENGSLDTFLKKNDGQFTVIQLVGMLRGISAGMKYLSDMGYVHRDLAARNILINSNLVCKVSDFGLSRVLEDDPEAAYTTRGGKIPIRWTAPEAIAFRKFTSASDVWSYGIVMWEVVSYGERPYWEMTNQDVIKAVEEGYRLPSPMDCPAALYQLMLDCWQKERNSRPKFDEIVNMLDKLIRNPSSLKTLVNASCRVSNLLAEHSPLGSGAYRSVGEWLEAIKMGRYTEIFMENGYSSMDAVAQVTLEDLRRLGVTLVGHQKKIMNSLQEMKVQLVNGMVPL
Chain of BRAF (P15056 whole entry): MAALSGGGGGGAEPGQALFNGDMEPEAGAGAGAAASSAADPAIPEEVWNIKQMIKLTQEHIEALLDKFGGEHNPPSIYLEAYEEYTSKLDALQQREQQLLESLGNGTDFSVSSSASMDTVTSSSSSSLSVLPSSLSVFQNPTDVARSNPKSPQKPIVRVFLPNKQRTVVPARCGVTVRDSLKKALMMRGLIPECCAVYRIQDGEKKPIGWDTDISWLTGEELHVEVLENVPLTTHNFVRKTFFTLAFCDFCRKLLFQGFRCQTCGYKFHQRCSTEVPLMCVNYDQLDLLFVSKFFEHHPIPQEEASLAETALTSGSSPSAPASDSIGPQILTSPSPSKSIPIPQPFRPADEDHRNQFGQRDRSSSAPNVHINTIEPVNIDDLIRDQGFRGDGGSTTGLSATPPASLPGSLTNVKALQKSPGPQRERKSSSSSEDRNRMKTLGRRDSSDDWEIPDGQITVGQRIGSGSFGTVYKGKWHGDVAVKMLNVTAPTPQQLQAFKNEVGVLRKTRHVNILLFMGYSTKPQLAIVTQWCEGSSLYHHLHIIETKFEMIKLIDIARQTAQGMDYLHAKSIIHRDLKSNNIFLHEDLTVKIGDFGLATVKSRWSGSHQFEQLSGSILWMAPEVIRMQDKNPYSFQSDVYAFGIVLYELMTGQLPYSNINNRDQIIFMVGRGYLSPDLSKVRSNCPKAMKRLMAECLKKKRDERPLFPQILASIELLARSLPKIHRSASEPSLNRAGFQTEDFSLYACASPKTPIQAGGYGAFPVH
Chain of MSSK1 (Q9UPE1 whole entry): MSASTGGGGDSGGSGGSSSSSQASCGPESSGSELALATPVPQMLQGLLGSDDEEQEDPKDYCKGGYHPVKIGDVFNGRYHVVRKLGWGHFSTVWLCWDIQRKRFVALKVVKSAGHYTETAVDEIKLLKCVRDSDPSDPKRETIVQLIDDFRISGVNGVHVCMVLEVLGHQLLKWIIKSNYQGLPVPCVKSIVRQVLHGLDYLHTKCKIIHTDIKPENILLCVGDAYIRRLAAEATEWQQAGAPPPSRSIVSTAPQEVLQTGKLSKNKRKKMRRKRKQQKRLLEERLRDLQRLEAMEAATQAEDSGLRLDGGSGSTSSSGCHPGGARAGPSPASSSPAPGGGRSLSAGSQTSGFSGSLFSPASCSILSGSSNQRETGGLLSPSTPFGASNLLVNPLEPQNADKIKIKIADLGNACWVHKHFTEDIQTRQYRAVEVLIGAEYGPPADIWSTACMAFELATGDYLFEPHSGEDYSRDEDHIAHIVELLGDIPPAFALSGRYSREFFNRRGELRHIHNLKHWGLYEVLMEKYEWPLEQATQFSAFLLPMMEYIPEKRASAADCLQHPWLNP

Cc1cccc(-c2ccc(-c3cc4cnc(NCCCN5CCCC5=O)nc4n(CCCCN)c3=O)c(Cl)c2)n1 [compound 27, MR30]
ΔTm MR30 (27) (CaMKK2): 0.5 °C | ΔTm MR30 (27) (EphA5): 2.8 °C | ΔTm MR30 (27) (PLK4): 4.5 °C | ΔTm MR30 (27) (MSSK1): -0.4 °C | ΔTm MR30 (27) (BRAF): 2.6 °C | ΔTm MR30 (27) (MAP3K5): 9.2 °C

Cc1cccc(-c2ccc(-c3cc4cnc(Nc5cc(C(F)(F)F)ccc5C)nc4n(CCCCN)c3=O)c(Cl)c2)n1 [compound 28, 8-(4-Aminobutyl)-6-(2-chloro-4-(6-methylpyridin-2-yl)phenyl)-2-((2-methyl-5-(trifluoromethyl)phenyl)amino)pyrido[2,3-d]pyrimidin-7(8H)-one]
ΔTm 28 (CaMKK2): 2.4 °C | ΔTm 28 (EphA5): 4.5 °C | ΔTm 28 (PLK4): 8.0 °C | ΔTm 28 (MSSK1): -0.9 °C | ΔTm 28 (BRAF): 3.2 °C | ΔTm 28 (MAP3K5): 12.2 °C

Cc1cccc(-c2ccc(-c3cc4cnc(NCCCN5CCNCC5)nc4n(CCCCN)c3=O)c(Cl)c2)n1 [compound 29, 8-(4-Aminobutyl)-6-(2-chloro-4-(6-methylpyridin-2-yl)phenyl)-2-((3-(piperazin-1-yl)propyl)amino)pyrido[2,3-d]pyrimidin-7(8H)-one]
ΔTm 29 (CaMKK2): 0.7 °C | ΔTm 29 (EphA5): 2.7 °C | ΔTm 29 (PLK4): 4.2 °C | ΔTm 29 (MSSK1): -0.3 °C | ΔTm 29 (BRAF): 1.5 °C | ΔTm 29 (MAP3K5): 9.6 °C

Cc1cccc(-c2ccc(-c3cc4cnc(Nc5ccc(CCCO)cc5)nc4n(CCCCN)c3=O)c(Cl)c2)n1 [compound 30, 8-(4-Aminobutyl)-6-(2-chloro-4-(6-methylpyridin-2-yl)phenyl)-2-((4-(3-hydroxypropyl)phenyl)amino)pyrido[2,3-d]pyrimidin-7(8H)-one]
ΔTm 30 (CaMKK2): 7.5 °C | ΔTm 30 (EphA5): 6.6 °C | ΔTm 30 (PLK4): 12.6 °C | ΔTm 30 (MSSK1): -0.2 °C | ΔTm 30 (BRAF): 6.2 °C | ΔTm 30 (MAP3K5): 13.1 °C

Cc1cccc(-c2ccc(-c3cc4cnc(Nc5ccc(O)cc5)nc4n(CCCCN)c3=O)c(Cl)c2)n1 [compound 31, 8-(4-Aminobutyl)-6-(2-chloro-4-(6-methylpyridin-2-yl)phenyl)-2-((4-hydroxyphenyl)amino) pyrido[2,3-d]pyrimidin-7(8H)-one]
ΔTm 31 (CaMKK2): 5.2 °C | ΔTm 31 (EphA5): 6.2 °C | ΔTm 31 (PLK4): 12.2 °C | ΔTm 31 (MSSK1): 0.0 °C | ΔTm 31 (BRAF): 5.0 °C | ΔTm 31 (MAP3K5): 12.3 °C

Cc1cccc(-c2ccc(-c3cc4cnc(Nc5ccc(C)c(O)c5)nc4n(CCCCN)c3=O)c(Cl)c2)n1 [compound 32, 8-(4-Aminobutyl)-6-(2-chloro-4-(6-methylpyridin-2-yl)phenyl)-2-((3-hydroxy-4-methylphenyl)amino)pyrido[2,3-d]pyrimidin-7(8H)-one]
ΔTm 32 (CaMKK2): 6.8 °C | ΔTm 32 (EphA5): 6.6 °C | ΔTm 32 (PLK4): 11.5 °C | ΔTm 32 (MSSK1): -0.2 °C | ΔTm 32 (BRAF): 5.7 °C | ΔTm 32 (MAP3K5): 12.7 °C
